One assay deals with Human mTOR (FLAG-TOR) (Homo sapiens, UniProt P42345). The experiment in a line: mTOR kinase assay (DELFIA format, purified enzyme). Format: biochemical.
Assay [1] concerns human breast MDA-MB-361 tumor cell line. The experiment in a line: In vitro cell culture growth assay (MTS), MDA-MB-361. Format: cell-based. The conditions noted are these: Homo sapiens, MTS cell growth assay, three days after drug treatment, read-out: IC50 MDA-MB-361.
In the next assay the target is PI3K-α (Homo sapiens, UniProt P42336). The experiment in a line: PI3K-alpha fluorescence polarization assay. The conditions noted are these: read-out: IC50 PI3Kα.
Sequence of PI3K-α (P42336 whole entry, species assumed): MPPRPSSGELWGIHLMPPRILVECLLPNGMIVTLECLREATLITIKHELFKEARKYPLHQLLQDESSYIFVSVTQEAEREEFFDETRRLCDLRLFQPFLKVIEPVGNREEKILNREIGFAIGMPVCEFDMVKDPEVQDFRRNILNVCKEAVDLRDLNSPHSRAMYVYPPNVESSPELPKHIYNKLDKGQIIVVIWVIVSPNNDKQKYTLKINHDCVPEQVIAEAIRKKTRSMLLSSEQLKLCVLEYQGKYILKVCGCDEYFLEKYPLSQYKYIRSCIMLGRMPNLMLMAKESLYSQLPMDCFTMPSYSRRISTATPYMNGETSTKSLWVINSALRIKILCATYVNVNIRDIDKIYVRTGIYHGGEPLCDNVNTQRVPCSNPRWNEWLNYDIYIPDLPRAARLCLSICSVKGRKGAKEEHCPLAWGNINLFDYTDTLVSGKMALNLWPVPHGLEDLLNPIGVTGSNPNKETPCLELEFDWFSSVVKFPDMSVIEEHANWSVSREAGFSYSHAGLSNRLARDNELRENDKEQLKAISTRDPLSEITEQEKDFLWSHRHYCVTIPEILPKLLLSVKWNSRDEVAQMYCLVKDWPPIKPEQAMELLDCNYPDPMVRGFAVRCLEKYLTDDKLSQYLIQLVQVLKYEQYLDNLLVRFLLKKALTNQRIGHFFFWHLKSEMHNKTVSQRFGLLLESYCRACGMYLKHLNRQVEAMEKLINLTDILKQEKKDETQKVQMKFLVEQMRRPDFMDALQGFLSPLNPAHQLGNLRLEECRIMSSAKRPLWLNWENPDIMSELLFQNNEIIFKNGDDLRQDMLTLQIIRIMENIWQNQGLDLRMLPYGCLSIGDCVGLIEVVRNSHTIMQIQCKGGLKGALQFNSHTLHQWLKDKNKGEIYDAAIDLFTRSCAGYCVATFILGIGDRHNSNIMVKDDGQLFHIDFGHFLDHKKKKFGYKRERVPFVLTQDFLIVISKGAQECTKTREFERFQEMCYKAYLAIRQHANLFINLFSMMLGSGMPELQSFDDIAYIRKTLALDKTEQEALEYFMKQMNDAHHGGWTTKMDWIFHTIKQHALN
Sequence of PI3K-α (P27986 whole entry partner, species assumed): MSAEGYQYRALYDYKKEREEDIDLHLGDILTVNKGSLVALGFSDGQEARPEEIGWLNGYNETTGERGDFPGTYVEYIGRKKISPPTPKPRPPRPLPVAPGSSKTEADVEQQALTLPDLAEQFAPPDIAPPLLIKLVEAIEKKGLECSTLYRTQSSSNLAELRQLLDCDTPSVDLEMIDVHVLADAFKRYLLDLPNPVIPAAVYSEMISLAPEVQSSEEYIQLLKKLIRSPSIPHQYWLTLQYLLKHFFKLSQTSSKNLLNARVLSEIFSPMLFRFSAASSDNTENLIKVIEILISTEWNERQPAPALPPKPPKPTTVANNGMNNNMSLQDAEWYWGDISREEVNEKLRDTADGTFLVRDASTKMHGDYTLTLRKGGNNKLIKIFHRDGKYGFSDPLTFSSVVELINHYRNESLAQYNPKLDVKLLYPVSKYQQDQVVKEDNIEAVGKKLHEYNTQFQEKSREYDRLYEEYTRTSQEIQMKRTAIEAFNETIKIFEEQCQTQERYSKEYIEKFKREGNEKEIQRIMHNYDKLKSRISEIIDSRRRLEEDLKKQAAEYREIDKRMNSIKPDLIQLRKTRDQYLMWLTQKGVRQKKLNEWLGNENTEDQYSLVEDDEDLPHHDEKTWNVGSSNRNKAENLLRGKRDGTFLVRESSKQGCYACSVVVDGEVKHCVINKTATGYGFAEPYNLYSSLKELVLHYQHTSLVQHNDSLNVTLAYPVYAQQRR
The target in the next assay is PI3K-γ (Homo sapiens, UniProt P48736). The experiment in a line: PI3K-gamma fluorescence polarization assay. The conditions noted are these: read-out: IC50 PI3Kγ. Background: Polarisation of emitted light reports the rotation of a fluorescent probe.
Sequence of PI3K-γ (P48736 whole entry, species assumed): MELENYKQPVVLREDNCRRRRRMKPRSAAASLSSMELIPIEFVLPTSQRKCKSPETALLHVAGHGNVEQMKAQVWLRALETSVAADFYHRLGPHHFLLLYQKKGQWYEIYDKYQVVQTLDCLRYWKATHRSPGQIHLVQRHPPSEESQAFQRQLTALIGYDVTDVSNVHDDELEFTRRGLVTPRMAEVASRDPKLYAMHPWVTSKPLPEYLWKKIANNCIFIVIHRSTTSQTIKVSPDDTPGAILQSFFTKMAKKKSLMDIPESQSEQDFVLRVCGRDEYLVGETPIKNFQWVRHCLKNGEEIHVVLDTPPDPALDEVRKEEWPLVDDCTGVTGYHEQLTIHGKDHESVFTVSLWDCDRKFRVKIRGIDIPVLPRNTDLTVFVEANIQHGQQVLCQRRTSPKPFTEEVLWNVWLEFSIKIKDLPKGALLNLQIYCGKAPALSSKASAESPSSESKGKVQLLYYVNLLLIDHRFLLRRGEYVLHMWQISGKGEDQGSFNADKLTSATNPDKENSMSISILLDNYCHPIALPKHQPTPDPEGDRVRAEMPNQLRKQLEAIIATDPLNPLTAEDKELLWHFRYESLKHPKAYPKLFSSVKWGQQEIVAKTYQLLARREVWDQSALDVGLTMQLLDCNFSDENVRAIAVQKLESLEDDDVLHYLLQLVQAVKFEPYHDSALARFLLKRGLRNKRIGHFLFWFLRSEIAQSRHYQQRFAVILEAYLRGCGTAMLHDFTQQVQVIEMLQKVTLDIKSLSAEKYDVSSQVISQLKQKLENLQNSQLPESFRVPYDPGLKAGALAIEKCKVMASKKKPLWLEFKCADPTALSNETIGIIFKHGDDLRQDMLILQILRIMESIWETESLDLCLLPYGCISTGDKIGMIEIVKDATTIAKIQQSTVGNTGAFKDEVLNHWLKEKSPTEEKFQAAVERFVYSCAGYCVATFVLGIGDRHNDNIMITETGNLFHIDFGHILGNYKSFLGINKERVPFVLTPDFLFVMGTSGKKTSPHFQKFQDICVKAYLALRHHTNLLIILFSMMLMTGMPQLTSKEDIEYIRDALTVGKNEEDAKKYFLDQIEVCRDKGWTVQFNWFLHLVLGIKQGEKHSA
The test system of assay [2] is human prostate PC3-mm2 tumor cell line. The experiment in a line: In vitro cell culture growth assay (MTS), PC3-mm2. The assay is classed as cell-based. The conditions noted are these: Homo sapiens, PC3MM2, 72 h, MTS cell growth assay, three days after drug treatment, read-out: IC50 PC3-mm2. (In general: Tetrazolium dyes change colour on reduction, which living cells bring about.)

SMILES strings stand for the structures. Where “and” joins values, the source holds several entries; their conditions need not be identical. Identical values can stand only once. Like-named read-outs stand apart in the source and are kept apart here.

Sequence of Human mTOR (FLAG-TOR) (P42345 1360-2549 limits assumed): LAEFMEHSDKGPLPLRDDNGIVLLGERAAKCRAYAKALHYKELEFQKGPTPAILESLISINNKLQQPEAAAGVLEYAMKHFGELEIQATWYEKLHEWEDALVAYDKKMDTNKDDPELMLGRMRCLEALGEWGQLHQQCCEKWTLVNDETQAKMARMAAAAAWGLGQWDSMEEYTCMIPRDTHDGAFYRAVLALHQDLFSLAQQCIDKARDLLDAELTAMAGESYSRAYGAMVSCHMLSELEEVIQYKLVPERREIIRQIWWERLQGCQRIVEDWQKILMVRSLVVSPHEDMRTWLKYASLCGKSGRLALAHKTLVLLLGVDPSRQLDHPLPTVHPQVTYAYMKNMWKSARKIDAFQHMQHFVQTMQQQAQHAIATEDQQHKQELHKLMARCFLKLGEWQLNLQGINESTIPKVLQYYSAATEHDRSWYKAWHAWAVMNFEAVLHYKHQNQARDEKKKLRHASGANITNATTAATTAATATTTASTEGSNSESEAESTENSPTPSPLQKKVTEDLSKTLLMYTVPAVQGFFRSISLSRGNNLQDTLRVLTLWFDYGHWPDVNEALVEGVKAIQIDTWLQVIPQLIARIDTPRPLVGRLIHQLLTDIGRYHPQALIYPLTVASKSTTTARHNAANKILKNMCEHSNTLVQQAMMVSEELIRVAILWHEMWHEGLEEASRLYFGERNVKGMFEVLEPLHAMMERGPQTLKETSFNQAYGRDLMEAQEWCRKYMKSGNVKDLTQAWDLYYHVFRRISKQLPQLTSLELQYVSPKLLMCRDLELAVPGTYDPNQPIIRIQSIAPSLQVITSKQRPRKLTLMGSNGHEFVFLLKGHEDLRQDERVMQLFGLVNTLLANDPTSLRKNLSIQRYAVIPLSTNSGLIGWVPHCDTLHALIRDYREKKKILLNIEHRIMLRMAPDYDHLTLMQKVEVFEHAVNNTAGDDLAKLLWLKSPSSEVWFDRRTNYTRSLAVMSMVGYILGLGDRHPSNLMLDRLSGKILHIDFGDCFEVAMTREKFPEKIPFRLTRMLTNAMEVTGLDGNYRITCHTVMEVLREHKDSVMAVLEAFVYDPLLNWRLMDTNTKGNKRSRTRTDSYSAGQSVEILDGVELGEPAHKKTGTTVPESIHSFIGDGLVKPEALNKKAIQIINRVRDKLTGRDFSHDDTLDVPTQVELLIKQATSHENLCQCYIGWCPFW

For the molecule `CN(C)CCN(C)C(=O)c1ccc(NC(=O)Nc2ccc(-c3nc(C4=CCOCC4)nc(N4CCOCC4)n3)cc2)cc1` [Example 240, 4-[({4-[4-(3,6-dihydro-2H-pyran-4-yl)-6-morpholin-4-yl-1,3,5-triazin-2-yl]phenyl}carbamoyl)amino]-N-[2-(dimethylamino)ethyl]-N-methylbenzamide], the IC50 (as a rule, the concentration at which inhibition is half-maximal) is 1.6 nM at Human mTOR (FLAG-TOR) (read-out: IC50 mTOR); below 21.7 nM in assay [1] (72 h, MDA-MB-361 cells); 1 nM at PI3K-α; 0.3 nM at PI3K-α (listed as 506); 6 nM at PI3K-γ; 7 nM on PI3K-γ (listed as 506). The IC50 in assay [2] (PC3-mm2 cells) and in assay [2] was 12 nM each time.
For `CCCCc1nc(-c2ccc(NC(=O)Nc3ccc(C(=O)N4CCC(N(C)C)CC4)cc3)cc2)nc(N2CCOCC2)n1` [Example 241, 1-[4-(4-butyl-6-morpholin-4-yl-1,3,5-triazin-2-yl)phenyl]-3-(4-{[4-(dimethylamino)piperidin-1-yl]carbonyl}phenyl)urea], the IC50 at Human mTOR (FLAG-TOR) (read-out: IC50 mTOR) came to 9 nM; in assay [1] (MDA-MB-361, 72 h), 24 nM; on PI3K-α, 6 nM; on PI3K-γ it was 23 nM; in assay [2], 135 nM.
On the same counts, the results for `CCc1nc(-c2ccc(NC(=O)Nc3ccc(C(=O)N(C)CCN(C)C)cc3)cc2)nc(N2CCOCC2)n1` [Example 242, N-[2-(dimethylamino)ethyl]-4-({[4-(4-ethyl-6-morpholin-4-yl-1,3,5-triazin-2-yl)phenyl]carbamoyl}amino)-N-methylbenzamide] are 7 nM, 11 nM, 2 nM, 24 nM and 49 nM.
On to `C=Cc1ccc(NC(=O)Nc2ccc(-c3nc(N4CCOCC4)nc(N4C5CCC4COC5)n3)cc2)cc1` [Example 249, 1-(4-ethenylphenyl)-3-{4-[4-morpholin-4-yl-6-(3-oxa-8-azabicyclo[3.2.1]oct-8-yl)-1,3,5-triazin-2-yl]phenyl}urea], for which the IC50 on Human mTOR (FLAG-TOR) (read-out: IC50 mTOR) is 2 nM and 2.5 nM; in assay [1] (MDA-MB-361, 72 h), 92 nM; at PI3K-α, 25 nM; on PI3K-γ, 216 nM; on PI3K-γ (listed as 726) it was 216 nM; in assay [2] (PC3-mm2 cells) it was 142 nM. Moreover, in assay [2], the IC50 was found to be 142 nM.
Consider `CN1CCN(Cc2ccc(NC(=O)Nc3ccc(-c4nc(N5CCOCC5)nc(N5C6CCC5COC6)n4)cc3)cc2)CC1` [Example 250, 1-{4-[(4-methylpiperazin-1-yl)methyl]phenyl}-3-{4-[4-morpholin-4-yl-6-(3-oxa-8-azabicyclo[3.2.1]oct-8-yl)-1,3,5-triazin-2-yl]phenyl}urea], for which the IC50 is 0.9 nM and 0.805 nM at Human mTOR (FLAG-TOR) (IC50 mTOR); 14 nM in assay [1] (MDA-MB-361, 72 h, MDA-MB-361 cells); 14 nM in assay [1] (MDA-MB-361, 72 h); 21 nM at PI3K-α; 190 nM at PI3K-γ; 190 nM at PI3K-γ (listed as 727). Besides, the IC50 in assay [2] (PC3-mm2 cells) and in assay [2] was 31 nM in each case.
For `CCCCc1nc(-c2ccc(NC(=O)Nc3ccc(CNCCN(C)C)cc3)cc2)nc(N2CCOCC2)n1` [Example 252, 1-[4-(4-butyl-6-morpholin-4-yl-1,3,5-triazin-2-yl)phenyl]-3-[4-({[2-(dimethylamino)ethyl]amino}methyl)phenyl]urea], the IC50 on Human mTOR (FLAG-TOR) (read-out: IC50 mTOR) came to 18 nM; in assay [1] (MDA-MB-361, 72 h) it was 219 nM; at PI3K-α it was 22 nM; at PI3K-γ, 184 nM; in assay [2], 747 nM.
The matching figures for `CCCCc1nc(-c2ccc(NC(=O)Nc3ccc(C(=O)Nc4ccc(N5CCN(C)CC5)cc4)cc3)cc2)nc(N2CCOCC2)n1` [Example 253, 4-({[4-(4-butyl-6-morpholin-4-yl-1,3,5-triazin-2-yl)phenyl]carbamoyl}amino)-N-[4-(4-methylpiperazin-1-yl)phenyl]benzamide]: 9 nM, 12 nM, 8 nM, 267 nM and 574 nM.
The matching figures for `CCCCc1nc(-c2ccc(NC(=O)Nc3ccc(C=O)cc3)cc2)nc(N2CCOCC2)n1` [Example 255, 1-[4-(4-butyl-6-morpholin-4-yl-1,3,5-triazin-2-yl)phenyl]-3-(4-formylphenyl)urea]: 16 nM, 174 nM, 48 nM, 85 nM and 328 nM.
Regarding `CN(C)CCOc1ccc(NC(=O)Nc2ccc(-c3nc(N4CCOCC4)nc(N4C5CCC4COC5)n3)cc2)cc1` [Example 266, 1-{4-[2-(dimethylamino)ethoxy]phenyl}-3-{4-[4-morpholin-4-yl-6-(3-oxa-8-azabicyclo[3.2.1]oct-8-yl)-1,3,5-triazin-2-yl]phenyl}urea], the IC50 at Human mTOR (FLAG-TOR) (read-out: IC50 mTOR) was 1.7 nM and 1.85 nM; in assay [1] (72 h, MDA-MB-361 cells), below 31 nM; at PI3K-α it was 16 nM; at PI3K-α (listed as 729) it was 14.5 nM; at PI3K-γ it was 93 nM; on PI3K-γ (listed as 729), 100 nM. The IC50 in assay [2] (PC3-mm2 cells) was below 31 nM.
Regarding `O=C(Nc1ccncc1)Nc1ccc(-c2nc(CCC3OCCCO3)nc(N3CCOCC3)n2)cc1` [Example 267, 1-(4-{4-[2-(1,3-dioxan-2-yl)ethyl]-6-morpholin-4-yl-1,3,5-triazin-2-yl}phenyl)-3-pyridin-4-ylurea], the IC50 on Human mTOR (FLAG-TOR) (read-out: IC50 mTOR) was 3.5 nM and 4.3 nM; in assay [1] (MDA-MB-361, 72 h), 94 nM; at PI3K-α, 17 nM; at PI3K-α (listed as 730) it was 15.5 nM; on PI3K-γ, 58 nM; on PI3K-γ (listed as 730) it was 64.5 nM. Besides, the IC50 in assay [2] (PC3-mm2 cells) and in assay [2] was 200 nM in each case.
Turning to `CCCCc1nc(-c2ccc(NC(=O)Nc3ccc(C(=O)N4CCC(Cc5ccccc5)CC4)cc3)cc2)nc(N2CCOCC2)n1` [Example 270, 1-{4-[(4-benzylpiperidin-1-yl)carbonyl]phenyl}-3-[4-(4-butyl-6-morpholin-4-yl-1,3,5-triazin-2-yl)phenyl]urea], the IC50 on Human mTOR (FLAG-TOR) (read-out: IC50 mTOR) came out at 160 nM; in assay [1] (MDA-MB-361, 72 h), 397 nM; on PI3K-α it was 68 nM; at PI3K-γ it was 318 nM; in assay [2], 953 nM.
The matching figures for `CCc1nc(-c2ccc(NC(=O)Nc3ccc(C(=O)NC4CCN(C)CC4)cc3)cc2)nc(N2CCOCC2)n1` [Example 271, 4-({[4-(4-ethyl-6-morpholin-4-yl-1,3,5-triazin-2-yl)phenyl]carbamoyl}amino)-N-(1-methylpiperidin-4-yl)benzamide]: 13 nM, 68 nM, 2 nM, 23 nM and 129 nM.
Turning to `CCCCc1nc(-c2ccc(NC(=O)Nc3ccc(C(=O)NC4CCN(C)CC4)cc3)cc2)nc(N2CCOCC2)n1` [Example 272, 4-({[4-(4-butyl-6-morpholin-4-yl-1,3,5-triazin-2-yl)phenyl]carbamoyl}amino)-N-(1-methylpiperidin-4-yl)benzamide], the IC50 was 30 nM on Human mTOR (FLAG-TOR) (read-out: IC50 mTOR); 70 nM in assay [1] (MDA-MB-361, 72 h); 5 nM on PI3K-α; 54 nM at PI3K-γ; 340 nM in assay [2].
Turning to `O=C(Nc1ccncc1)Nc1ccc(-c2nc(N3CCOCC3)nc(N3C4COCC3C(O)C4)n2)cc1` (centres unmarked) [Example 273, 1-{4-[4-(6-hydroxy-3-oxa-8-azabicyclo[3.2.1]oct-8-yl)-6-morpholin-4-yl-1,3,5-triazin-2-yl]phenyl}-3-pyridin-4-ylurea], the IC50 at Human mTOR (FLAG-TOR) (read-out: IC50 mTOR) is 0.8 nM; in assay [1] (MDA-MB-361, 72 h), 32 nM; on PI3K-α, 4 nM; at PI3K-γ, 33 nM; in assay [2] it was 80 nM.

The values above are taken from patent US20090304692A1, “TRIAZINE COMPOUNDS AS PI3 KINASE AND MTOR INHIBITORS” (Wyeth, priority 2008, published 2009).
